Patent US20260327263A1, “Anti-Bacterial Peptides” (priority 2023, published 2026)
Values after ≈ are worked out from the molar mass of the structure shown. Where a SMILES comes first, the peptide text is derived from it. Where no end group is shown, it is not given here. [ ]: non-standard residue; d: D form. Bip = N[C@@H](Cc1ccc(-c2ccccc2)cc1)C(=O)O; 1Nal = N[C@@H](Cc1cccc2ccccc12)C(=O)O; 2Nal = N[C@@H](Cc1ccc2ccccc2c1)C(=O)O; Aib = CC(C)(N)C(=O)O

What was measured:
[1] = tested on: Pseudomonas aeruginosa (PA); experiment: Broth microdilution anti-bacterial assay (CLSI), Pseudomonas aeruginosa; format: cell-based, Pseudomonas aeruginosa (ATCC 14213); conditions: for MIC / MBC: PA; for MIC: overnight, 37° C., ≥99% inhibition; for MBC: ≥99% killing; for anti-bacterial activity (in words): PA and SA
Method: (§1) To evaluate their anti-bacterial potency, broth microdilution method as per the CLSI guidelines 1 was used. […] The anti-bacterial potency of the tested agents is quantified using minimum inhibitory concentration (MIC) and minimum bactericidal concentration (MBC). […] To obtain the MBC data, 1X, 2X and 4× MIC of the peptide variants were plated to obtain the number of viable colonies compared to the original inoculum.
(§2) Pseudomonas aeruginosa (ATCC 14213, PA), and methicillin resistant Staphylococcus aureus (BAA1717-USA 300, SA) were obtained from The American Type Culture Collection (ATCC).
(§3) Examination of the potency of modified short peptides against PA and SA strains was performed by using the broth microdilution protocol from the Clinical and Laboratory Standards Institute (CLSI) guidelines (CLSI 2012) as described. Briefly, five freshly plated bacteria colonies were grown in cation adjusted MH2 broth (BD Biosciences) in a shaker incubator at 37° C., 220 RPM. Cells were grown to an optical density (OD600) of ~0.2 measured using a Microplate Spectrophotometer (Molecular Devices Spectra Max Plus). 100 μL of microbial culture containing ~5×10^5 CFU/mL of bacteria in the respective broths were introduced into each well containing 100 μL of peptides and incubated overnight at 37° C. Next, to check the bactericidal effects, 100 μL from each well was transferred and spread on sterile MH2 agar plates. The plates were incubated overnight at 37° C. and the number of colonies forming units (CFU) were calculated the following day. Readings of bacteria grown in media without any treatments were normalized to 100% as media control. For the mixed infection study, three freshly plated bacteria colonies each from PA, SA and ST plates were grown together in cation adjusted MH2 broth and proceeded as described above.

[2] = tested on: Staphylococcus aureus (SA); experiment: Broth microdilution anti-bacterial assay (CLSI), Staphylococcus aureus; format: cell-based; conditions: SA; for MIC: overnight, 37° C., ≥99% inhibition; for MBC: ≥99% killing
Method: as §1, §2, §3

| Molecule | MIC [1] [µM] | MBC [1] [µM] | MIC [2] [µM] | MBC [2] [µM] | anti-bacterial activity (in words) [1] |
| --- | --- | --- | --- | --- | --- |
| KKLLKKWVKLSKKALKLAKSL-NH2 [Q19K] | 12.5 | 25 | 12.5 | 25 | – |
| KKLLKKWVKLSKKLLKLAQSL-NH2 [A14L] | 12.5 | 12.5 | 6.25 | 6.25 | – |
| CC(C)C[C@H](NC(=O)[C@H](CO)NC(=O)[C@H](CC(C)C)NC(=O)C(C)(C)NC(=O)[C@H](CC(C)C)NC(=O)[C@H](CCCCN)NC(=O)[C@H](CC(C)C)NC(=O)[C@H](C)NC(=O)[C@H](CCCCN)NC(=O)[C@H](CCCCN)NC(=O)[C@H](CO)NC(=O)[C@H](CC(C)C)NC(=O)[C@H](CCCCN)NC(=O)[C@H](CC(C)C)NC(=O)[C@H](Cc1c[nH]c2ccccc12)NC(=O)[C@H](CCCCN)NC(=O)[C@H](CCCCN)NC(=O)[C@H](CC(C)C)NC(=O)[C@H](CC(C)C)NC(=O)[C@H](CCCCN)NC(=O)[C@@H](N)CCCCN)C(N)=O [V8LQ19LA18Aib] (H-KKLLKKWLKLSKKALKL[Aib]LSL-NH2) | 3.125 (≈ 7.7 µg/mL) | 3.125 (≈ 7.7 µg/mL) | 1.58 (≈ 3.89 µg/mL) | 1.56 (≈ 3.84 µg/mL) | – |
| KKLLKKWLKLSKKALKLALS-NH2 [V8LQ19L C-1] | 3.125 | 3.125 | 3.125 | 3.125 | strong potency |
| CC(C)C[C@H](NC(=O)[C@H](CO)NC(=O)[C@H](CC(C)C)NC(=O)[C@H](C)NC(=O)[C@H](CC(C)C)NC(=O)[C@H](CCCCN)NC(=O)[C@H](CC(C)C)NC(=O)[C@H](C)NC(=O)[C@H](CCCCN)NC(=O)[C@H](CCCCN)NC(=O)[C@H](CO)NC(=O)[C@H](CC(C)C)NC(=O)[C@H](CCCCN)NC(=O)[C@H](CC(C)C)NC(=O)[C@H](Cc1ccc(-c2ccccc2)cc1)NC(=O)[C@H](CCCCN)NC(=O)[C@H](CCCCN)NC(=O)[C@H](CC(C)C)NC(=O)[C@H](CC(C)C)NC(=O)[C@H](CCCCN)NC(=O)[C@@H](N)CCCCN)C(N)=O [W7BipV8LQ19L] (H-KKLLKK[Bip]LKLSKKALKLALSL-NH2) | 3.325 (≈ 8.27 µg/mL) | 3.125 (≈ 7.77 µg/mL) | 1.58 (≈ 3.93 µg/mL) | 1.56 (≈ 3.88 µg/mL) | – |
| KKLLKKKVKLSKKALKLAQSL-NH2 [W7K] | 12.5 | 12.5 | 12.5 | 25 | – |
| KWVKLSKKALKLAQSL-NH2 [E1AM2 N-5] | >25 | – | – | – | – |
| CC(C)C[C@H](NC(=O)[C@H](CO)NC(=O)[C@H](CC(C)C)NC(=O)C(C)(C)NC(=O)[C@H](CC(C)C)NC(=O)[C@H](CCCCN)NC(=O)[C@H](CC(C)C)NC(=O)C(C)(C)NC(=O)[C@H](CCCCN)NC(=O)[C@H](CCCCN)NC(=O)[C@H](CO)NC(=O)[C@H](CC(C)C)NC(=O)[C@H](CCCCN)NC(=O)[C@H](CC(C)C)NC(=O)[C@H](Cc1c[nH]c2ccccc12)NC(=O)[C@H](CCCCN)NC(=O)[C@H](CCCCN)NC(=O)[C@H](CC(C)C)NC(=O)[C@H](CC(C)C)NC(=O)[C@H](CCCCN)NC(=O)[C@@H](N)CCCCN)C(N)=O [V8LQ19LA1418Aib] (H-KKLLKKWLKLSKK[Aib]LKL[Aib]LSL-NH2) | 3.126 (≈ 7.75 µg/mL) | 3.125 (≈ 7.74 µg/mL) | 1.56 (≈ 3.87 µg/mL) | 1.56 (≈ 3.87 µg/mL) | – |
| CC(C)C[C@H](NC(=O)[C@H](CO)NC(=O)[C@H](CC(C)C)NC(=O)[C@H](C)NC(=O)[C@H](CC(C)C)NC(=O)[C@H](CCCCN)NC(=O)[C@H](CC(C)C)NC(=O)[C@H](C)NC(=O)[C@H](CCCCN)NC(=O)[C@H](CCCCN)NC(=O)[C@H](CO)NC(=O)[C@H](CC(C)C)NC(=O)[C@H](CCCCN)NC(=O)[C@H](CC(C)C)NC(=O)[C@H](Cc1ccc2ccccc2c1)NC(=O)[C@H](CCCCN)NC(=O)[C@H](CCCCN)NC(=O)[C@H](CC(C)C)NC(=O)[C@H](CC(C)C)NC(=O)[C@H](CCCCN)NC(=O)[C@@H](N)CCCCN)C(N)=O [W72NalV8LQ19L] (H-KKLLKK[2Nal]LKLSKKALKLALSL-NH2) | 1.56 (≈ 3.84 µg/mL) | 1.66 (≈ 4.09 µg/mL) | 1.56 (≈ 3.84 µg/mL) | 1.56 (≈ 3.84 µg/mL) | – |
| KKLLKKWVKLSKKKLKLAQSL-NH2 [A14K] | 12.5 | 12.5 | 12.5 | 12.5 | – |
| KLLKKWVKLSKKALKLAQSL-NH2 [E1AM2 N-1] | 12.5 | – | – | – | – |
| KKLLKKLLKLSKKALKLALSL-NH2 [W7LV8LQ19L] | 3.125 | 3.125 | 1.58 | 1.58 | – |
| KKLLKKWVKLSKKALKLAQLL-NH2 [S20L] | 6.25 | 12.5 | 6.25 | 12.5 | – |
| KKWVKLSKKALKLAQSL-NH2 [E1AM2 N-4] | >25 | – | – | – | – |
| CC(C)C[C@H](NC(=O)[C@H](CO)NC(=O)[C@H](CC(C)C)NC(=O)[C@H](C)NC(=O)[C@H](CC(C)C)NC(=O)[C@H](CCCCN)NC(=O)[C@H](CC(C)C)NC(=O)[C@H](C)NC(=O)[C@H](CCCCN)NC(=O)[C@H](CCCCN)NC(=O)[C@H](CO)NC(=O)[C@H](CC(C)C)NC(=O)[C@H](CCCCN)NC(=O)[C@H](CC(C)C)NC(=O)[C@H](Cc1cccc2ccccc12)NC(=O)[C@H](CCCCN)NC(=O)[C@H](CCCCN)NC(=O)[C@H](CC(C)C)NC(=O)[C@H](CC(C)C)NC(=O)[C@H](CCCCN)NC(=O)[C@@H](N)CCCCN)C(N)=O [W71NalV8LQ19L] (H-KKLLKK[1Nal]LKLSKKALKLALSL-NH2) | 3.125 (≈ 7.69 µg/mL) | 3.125 (≈ 7.69 µg/mL) | 1.56 (≈ 3.84 µg/mL) | 1.56 (≈ 3.84 µg/mL) | – |
| CC(C)C[C@@H](NC(=O)[C@@H](CO)NC(=O)[C@@H](CC(C)C)NC(=O)[C@@H](C)NC(=O)[C@@H](CC(C)C)NC(=O)[C@@H](CCCCN)NC(=O)[C@@H](CC(C)C)NC(=O)[C@@H](C)NC(=O)[C@@H](CCCCN)NC(=O)[C@@H](CCCCN)NC(=O)[C@@H](CO)NC(=O)[C@@H](CC(C)C)NC(=O)[C@@H](CCCCN)NC(=O)[C@@H](CC(C)C)NC(=O)[C@@H](Cc1c[nH]c2ccccc12)NC(=O)[C@@H](CCCCN)NC(=O)[C@@H](CCCCN)NC(=O)[C@@H](CC(C)C)NC(=O)[C@@H](CC(C)C)NC(=O)[C@@H](CCCCN)NC(=O)[C@H](N)CCCCN)C(N)=O [D-V8LQ19L] (H-[dK][dK][dL][dL][dK][dK][dW][dL][dK][dL][dS][dK][dK][dA][dL][dK][dL][dA][dL][dS][dL]-NH2) | 3.125 (≈ 7.66 µg/mL) | 3.125 (≈ 7.66 µg/mL) | 3.125 (≈ 7.66 µg/mL) | 3.125 (≈ 7.66 µg/mL) | retains the strong anti-bacterial effects |
| KKLLKKWVKLSKKALK-NH2 [E1AM2 C-5] | >25 | – | – | – | – |
| KKLLKKWVKLSKKALKLAQS-NH2 [E1AM2 C-1] | >25 | – | – | – | – |
| Ac-KKLLKKWVKLSKKALKLAQSL-NH2 [Ac-E1AM2-NH2] | 12.5 | 12.5 | – | – | – |
| KKLLKKWVKLSKKALKLLQSL-NH2 [A18L] | 6.25 | 6.25 | 3.125 | 3.125 | – |
| KKLLKKWKKLSKKALKLAQSL-NH2 [V8K] | 3.125 | 3.126 | 12.5 | 12.5 | – |
| KKLLKKWVKLSKKALKLA-NH2 [E1AM2 C-3] | 6.25 | – | – | – | – |
| KKLLKKWVKLSKKALKLKQSL-NH2 [A18K] | 12.5 | 25 | 12.5 | 12.5 | – |
| LLKKWVKLSKKALKLAQSL-NH2 [E1AM2 N-2] | 25 | – | – | – | – |
| KKLLKKWVKLSKKALKLAQ-NH2 [E1AM2 C-2] | 25 | – | – | – | – |
| WVKLSKKALKLAQSL-NH2 [E1AM2 N-6] | >25 | – | – | – | – |
| LKKWVKLSKKALKLAQSL-NH2 [E1AM2 N-3] | 12.5 | – | – | – | – |
| KKLLKKWVKLSKKALKL-NH2 [E1AM2 C-4] | >12.5 | – | – | – | – |
| KKLLKKWVKLSKKAL-NH2 [E1AM2 C-6] | >25 | – | – | – | – |
| Ac-KKLLKKWVKLSKKALKLAQSL [Ac-E1AM2] | 25 | 25 | – | – | – |
